Data published in PubChem BioAssay AID2060491 (Molecular Pharmacology Branch, DTP, NCI, 2025).
Several values for one entry are separate records, joined by “and”; a condition that tells them apart may be missing. Equal values may be shown once.

System: 857933-349-R-J2-PDC complex spheroids, viability
Experiment: Anticancer human tumor 857933-349-R-J2-PDC patient-derived colon adenocarcinoma cell line growth inhibition [GQUAD]
Details: for viability, T/C: stronger effect = lower value
From the text: DNA G-quadruplex Stabilizer Agents in Combinations in Complex Spheroids
A high-throughput screen of multi-cell type tumor spheroids was designed to identify active combinations of DNA G-quadruplex stabilizer agents and targeted small molecules. Complex spheroids include a stromal component modeled by human endothelial cells (HUVEC) and fibroblasts modeled by human mesenchymal stem cells (MSCs). The concentration ranges selected for each drug and investigational agent were based upon clinically achievable concentrations if the clinical Cmax of the agent was known.
Compounds. The drugs and investigational agents: pidnarulex (CX-5461; NSC782164), APTO-253 (NSC789042), BRACO-19 (NSC847499), peposertib (NSC802822), ceralasertib (NSC780249), elimusertib (NSC800525), camonsertib (NSC841442), AZD-1390 (NSC803789), olaparib (NSC753686), talazoparib (NSC767125), ART-558 (NSC835418), sotorasib (NSC818433), MRTX-1133 (NSC836407), SN-38 (NSC673596), topotecan (NSC609699), etoposide (NSC141540), doxorubicin (NSC123127), gemcitabine (NSC613327), 5-fluorouracil (NSC19893), paclitaxel (NSC125973), vemurafenib (NSC761431), panobinostat (NSC761190), R-306465 (JNJ-16241199; NSC773264), adavosertib (NSC754352), TP-3654 (NSC805149), carboplatin (NSC241240), KSQ-4279 (NSC840948), and staurosporine (NSC755774) were obtained from the National Cancer Institute (NCI) Developmental Therapeutics Program Chemical Repository (34). The FDA-approved anticancer drug set is available from the NCI Developmental Therapeutics Program. […] The stock solutions were prepared in dimethyl sulfoxide (DMSO, Sigma-Aldrich, St. Louis, MO, cat. D2650) at 800-fold the tested concentration and stored at -70 degrees C prior to their use. All drugs and investigational agents were tested over a range starting from a high concentration at or near the clinical Cmax and decreasing in half-log increments. If the clinical Cmax for an agent had not been determined, the highest concentration tested was 10 microM.
2.3 Cell Culture. All cells were maintained in an incubator at 37 degrees C and 5% CO2 with 95% humidity. The PDC lines were cultured according to standard operating procedures established by the NCI PDMR. All PDCs were thawed and cultured in Matrigel-coated flasks prepared with a working solution of 1X Ham's F-12 nutrient mix, without supplementation (Invitrogen, cat. 11765054), 100 U/mL penicillin-streptomycin (Invitrogen, cat. 15140122), and 2.5% Matrigel (Corning Inc., cat. 354248) for the first three passages. The 857933-349-R-J2-PDC line was cultured in 6C/Colon 1B media, which includes advanced DMEM/F-12 (Thermo Fisher Scientific, cat. 12634028), 10 mM HEPES (Thermo Fisher Scientific, cat. 15630080), 1X GlutaMAX supplement (Thermo Fisher Scientific, cat. 35050061), 0.1 mg/mL primocin (InvivoGen, cat. ant-pm-2), 10% defined fetal bovine serum, heat inactivated (HyClone Laboratories Inc., cat. SH30070.03HI), 50% L-WRN conditioned media (ATCC, cat. CRL-3276), 1.25 mM N-Acetyl-L-cysteine (Sigma-Aldrich, cat. A9165), 10 mM nicotinamide (Sigma-Aldrich, cat. N0636), 1X B-27 supplement (Thermo Fisher Scientific, cat. 17504044), 1X N-2 supplement (Thermo Fisher Scientific, cat. 17502048), 10 microM Y-27632 dihydrochloride (Tocris Bioscience, cat. 1254), and 50 ng/mL human EGF recombinant protein (Thermo Fisher Scientific, cat. PHG0311). The 485176-168-R4-J1-PDC line was cultured in Panc media, which includes all 6C/Colon 1B media components plus 100 ng/mL human FGF-10 (Thermo Fisher Scientific, cat. 100-26), 500 nM SB-431542 (Selleckchem, cat. S1067), and gastrin (Tocris, cat. 3006).
[…]

[1] = curve of first compound, second compound 0.0316 µM
[2] = curve of first compound, second compound 0.1 µM
[3] = curve of first compound, second compound 0.316 µM
[4] = curve of first compound, second compound 1 µM
[5] = curve of first compound, second compound 3.16 µM
[6] = curve of first compound, second compound 10 µM
[7] = second compound 0.0316 µM, first compound 0.0316 µM
[8] = second compound 0.0316 µM, first compound 0.1 µM
[9] = second compound 0.0316 µM, first compound 0.316 µM
[10] = second compound 0.0316 µM, first compound 1 µM
[11] = second compound 0.0316 µM, first compound 3.16 µM
[12] = second compound 0.0316 µM, first compound 10 µM
[13] = second compound 0.1 µM, first compound 0.0316 µM
[14] = second compound 0.1 µM, first compound 0.1 µM
[15] = second compound 0.1 µM, first compound 0.316 µM
[16] = second compound 0.1 µM, first compound 1 µM
[17] = second compound 0.1 µM, first compound 3.16 µM
[18] = second compound 0.1 µM, first compound 10 µM
[19] = second compound 0.316 µM, first compound 0.0316 µM
[20] = second compound 0.316 µM, first compound 0.1 µM
[21] = second compound 0.316 µM, first compound 0.316 µM
[22] = second compound 0.316 µM, first compound 1 µM
[23] = second compound 0.316 µM, first compound 3.16 µM
[24] = second compound 0.316 µM, first compound 10 µM
[25] = second compound 1 µM, first compound 0.0316 µM
[26] = second compound 1 µM, first compound 0.1 µM
[27] = second compound 1 µM, first compound 0.316 µM
[28] = second compound 1 µM, first compound 1 µM
[29] = second compound 1 µM, first compound 3.16 µM
[30] = second compound 1 µM, first compound 10 µM
[31] = second compound 3.16 µM, first compound 0.0316 µM
[32] = second compound 3.16 µM, first compound 0.1 µM
[33] = second compound 3.16 µM, first compound 0.316 µM
[34] = second compound 3.16 µM, first compound 1 µM
[35] = second compound 3.16 µM, first compound 3.16 µM
[36] = second compound 3.16 µM, first compound 10 µM
[37] = second compound 10 µM, first compound 0.0316 µM
[38] = second compound 10 µM, first compound 0.1 µM
[39] = second compound 10 µM, first compound 0.316 µM
[40] = second compound 10 µM, first compound 1 µM
[41] = second compound 10 µM, first compound 3.16 µM
[42] = second compound 10 µM, first compound 10 µM
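Note: spheroids exposed to compounds for one week before readout.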
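Throughout, for viability, T/C: percent viability relative to vehicle DMSO wells taken as 100%.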

`CC(C)(O)C1CCC(Nc2ccc3ncc(-c4cccc(C(F)(F)F)c4)n3n2)CC1` (stereo unspecified) + Cc1[nH]c2ccc(F)cc2c1-c1nc2c3cccnc3c3ncccc3c2[nH]1 gave an IC50 [1] of 761 nM, an IC50 [2] of 725 nM and an IC50 [3] of 673 nM. The IC50 [4] was 682 nM, the IC50 [5] was 657 nM and the IC50 [6] was 707 nM. The viability, T/C [7] was 107%, the viability, T/C [8] was 95.8% and the viability, T/C [9] was 96.4%. The viability, T/C [10] was 35.7%, the viability, T/C [11] was 2.35% and the viability, T/C [12] was 2.26%. For the same compound, the viability, T/C [13] was 104%, the viability, T/C [14] was 97.8% and the viability, T/C [15] was 93%. It also gave a viability, T/C [16] of 33.5%, a viability, T/C [17] of 2.03% and a viability, T/C [18] of 1.93%. It also gave a viability, T/C [19] of 104%, a viability, T/C [20] of 92% and a viability, T/C [21] of 87.3%. For the same compound, the viability, T/C [22] was 30.8%, the viability, T/C [23] was 2.68% and the viability, T/C [24] was 2.19%. The viability, T/C [25] was 93.4%, the viability, T/C [26] was 87.3% and the viability, T/C [27] was 87.5%. For the same compound, the viability, T/C [28] was 31.4%, the viability, T/C [29] was 2.43% and the viability, T/C [30] was 1.82%. The viability, T/C [31] was 87.3%, the viability, T/C [32] was 85.1% and the viability, T/C [33] was 79.5%. The viability, T/C [34] was 33.1%, the viability, T/C [35] was 3.45% and the viability, T/C [36] was 2.02%. For the same compound, the viability, T/C [37] was 86.6%, the viability, T/C [38] was 84.6% and the viability, T/C [39] was 81.7%. It also gave a viability, T/C [40] of 36.4%, a viability, T/C [41] of 3.99% and a viability, T/C [42] of 2.51%.

`Cc1[nH]c2ccccc2c1CCNCc1ccc(/C=C/C(=O)NO)cc1` was tested, and the viability, T/C (compound 0.000999 µM) was 100% and 105% (2×), the viability, T/C (compound 0.00316 µM) was 102% (2×) and 105% and the viability, T/C (compound 0.00999 µM) was 102% and 112% and 104%. For the same compound, the viability, T/C (compound 0.0316 µM) was 107% and 104% and 96.4%, the viability, T/C (compound 0.0999 µM) was 102% (2×) and 94.5% and the viability, T/C (compound 0.316 µM) was 53% and 66.9% and 44.9%. For the same compound, the IC50 (curve of compound) was > 316 nM and 283 nM.

For `CC1COCCN1c1cc(-c2ccnn2C)c2ccnc(-c3ccn[nH]3)c2n1` (stereo unspecified) + Cc1[nH]c2ccc(F)cc2c1-c1nc2c3cccnc3c3ncccc3c2[nH]1, the IC50 [1] was 250 nM, the IC50 [2] was 491 nM and the IC50 [3] was 327 nM. For the same compound, the IC50 [4] was 280 nM, the IC50 [5] was 197 nM and the IC50 [6] was 277 nM. For the same compound, the viability, T/C [7] was 73.7%, the viability, T/C [8] was 53.2% and the viability, T/C [9] was 50.3%. The viability, T/C [10] was 43.8%, the viability, T/C [11] was 55.3% and the viability, T/C [12] was 44.8%. For the same compound, the viability, T/C [13] was 69.6%, the viability, T/C [14] was 70.9% and the viability, T/C [15] was 53.2%. The viability, T/C [16] was 43.5%, the viability, T/C [17] was 46.9% and the viability, T/C [18] was 44.2%. The viability, T/C [19] was 71.7%, the viability, T/C [20] was 56.6% and the viability, T/C [21] was 49.2%. The viability, T/C [22] was 48.8%, the viability, T/C [23] was 47.4% and the viability, T/C [24] was 46.6%. It also gave a viability, T/C [25] of 61%, a viability, T/C [26] of 61.5% and a viability, T/C [27] of 48.6%. It also gave a viability, T/C [28] of 43.1%, a viability, T/C [29] of 52.8% and a viability, T/C [30] of 50.1%. It also gave a viability, T/C [31] of 75.2%, a viability, T/C [32] of 56% and a viability, T/C [33] of 45%. It also gave a viability, T/C [34] of 43.8%, a viability, T/C [35] of 44.6% and a viability, T/C [36] of 44.7%. It also gave a viability, T/C [37] of 74.4%, a viability, T/C [38] of 57% and a viability, T/C [39] of 50.4%. For the same compound, the viability, T/C [40] was 43.1%, the viability, T/C [41] was 46.1% and the viability, T/C [42] was 42.6%.
